According to US10450292B2, “Inhibitors of bacterial RNA polymerase: arylpropanoyl, arylpropenoyl, and arylcyclopropanecarboxyl phloroglucinols” (Rutgers, The State University of New Jersey, priority 2015, dated 2019):
Converted amounts (≈) assume the structure as drawn.

Assays:
[1] = system: Escherichia coli D21f2tolC; experiment: microbe, parasite or virus in culture; conditions: 16 h, read-out: MIC E. coli D21f2tolC, Mueller-Hinton II agar, 16 h at 37° C.
[2] = system: Staphylococcus aureus ATCC 12600; experiment: Inhibition of bacterial growth in culture, spiral gradient endpoint assay (MIC); conditions: for MIC: Staphylococcus aureus, ATCC12600, 16 h, read-out: MIC S. aureus 12600, Mueller-Hinton II agar, 16 h at 37° C.
[3] = system: Enterococcus faecalis ATCC 19433; experiment: as above; format: cell-based; conditions: for MIC: Enterococcus faecalis, ATCC 19433 /, 16 h, read-out: MIC E. faecalis, Mueller-Hinton II agar, 16 h at 37° C.
Excerpt: J. Microbiol. Meths. […] Int. J. Exp. Clin. Chemother. […] Adv.

[4] = system: Escherichia coli D21f2tolC; conditions: Mueller-Hinton II agar, 16 h at 37° C.
[5] = Mueller-Hinton II agar, 16 h at 37° C.

Structure (SMILES) | MIC [1] [µg/mL] | MIC [2] [µg/mL] | MIC [3] [µg/mL] | MIC S. aureus 12600 [2, 5] [µg/mL] | MIC E. coli D21f2tolC [4] [µg/mL] | MIC E. faecalis H37Rv [3, 5] [µg/mL]
CCC1=C(O)C(CC)(CC)C(=O)C(C(=O)C2CC2c2ccc(Cl)cc2C)=C1O (stereo not drawn) [Example 82, 2-(2-(4-chloro-2-methylphenyl)cyclopropanecarbonyl)-4,6,6-triethyl-3,5-dihydroxycyclohexa-2,4-dienone] | 1.2 (≈ 2.98 µM) | 3.6 (≈ 8.93 µM) | 12 (≈ 29.8 µM) |  |  | 
CC1=C(O)C(C)(C)C(=O)C(C(=O)C2CC2c2ccc(C(F)(F)F)cc2C(F)(F)F)=C1O (stereo not drawn) [Example 83, 2-(2-(2,4-bis(trifluoromethyl)phenyl)cyclopropanecarbonyl)-3,5-dihydroxy-4,6,6-trimethylcyclohexa-2,4-dienone] | 2.4 (≈ 5.35 µM) | 5 (≈ 11.2 µM) | > 40 |  |  | 
CCC1=C(O)C(CC)(CC)C(=O)C(C(=O)C2CC2c2ccc(Cl)cc2C(F)(F)F)=C1O (stereo not drawn) [Example 84, 2-(2-(4-chloro-2-(trifluoromethyl)phenyl)cyclopropanecarbonyl)-4,6,6-triethyl-3,5-dihydroxycyclohexa-2,4-dienone] | 0.44 (≈ 0.963 µM) | 1.3 (≈ 2.85 µM) | 2.1 (≈ 4.6 µM) |  |  | 
CC1=C(O)C(C)(C)C(=O)C(C(=O)C2CC2c2ccc(Oc3ccc(F)cc3)cc2C(F)(F)F)=C1O (stereo not drawn) [Example 85, 2-(2-(4-(4-fluorophenoxy)-2-(trifluoromethyl)phenyl)cyclopropanecarbonyl)-3,5-dihydroxy-4,6,6-trimethylcyclohexa-2,4-dienone] | 4 (≈ 8.16 µM) | 12 (≈ 24.5 µM) | > 40 |  |  | 
CCCC1=C(O)C(CCC)(CCC)C(=O)C(C(=O)C2CC2c2ccc(C(F)(F)F)cc2C(F)(F)F)=C1O (stereo not drawn) [Example 86, 2-(2-(2,4-bis(trifluoromethyl)phenyl)cyclopropanecarbonyl)-3,5-dihydroxy-4,6,6-tripropylcyclohexa-2,4-dienone] | 2.2 (≈ 4.13 µM) | 0.65 (≈ 1.22 µM) | 1.7 (≈ 3.19 µM) |  |  | 
CCC1=C(O)C(CC)(CC)C(=O)C(C(=O)C2CC2c2ccc(C(F)(F)F)cc2C(F)(F)F)=C1O (stereo not drawn) [Example 87, 2-(2-(2,4-bis(trifluoromethyl)phenyl)cyclopropanecarbonyl)-4,6,6-triethyl-3,5-dihydroxycyclohexa-2,4-dienone] | 3.2 (≈ 6.52 µM) | 5.9 (≈ 12 µM) | > 40 |  |  | 
CC1=C(O)C(C)(C)C(=O)C(C(=O)C2CC2c2ccc(C(F)(F)F)cc2)=C1O (stereo not drawn) [Example 88, 3,5-dihydroxy-4,6,6-trimethyl-2-(2-(4-(trifluoromethyl)phenyl)cyclopropanecarbonyl)cyclohexa-2,4-dienone] | > 40 | > 40 | > 40 |  |  | 
CCC1=C(O)C(CC)(CC)C(=O)C(C(=O)C2CC2c2ccc(Cl)cc2)=C1O (stereo not drawn) [Example 89, 2-(2-(4-chlorophenyl)cyclopropanecarbonyl)-4,6,6-triethyl-3,5-dihydroxycyclohexa-2,4-dienone] |  |  |  | 7.9 (≈ 20.3 µM) | 3.0 (≈ 7.71 µM) | >40
CCC1=C(O)C(CC)(CC)C(=O)C(C(=O)C2CC2c2ccc(C(F)(F)F)cc2)=C1O (stereo not drawn) [Example 90, 4,6,6-triethyl-3,5-dihydroxy-2-(2-(4-(trifluoromethyl)phenyl)cyclopropanecarbonyl)cyclohexa-2,4-dienone] | 1.1 (≈ 2.6 µM) | 1.4 (≈ 3.31 µM) | 2.3 (≈ 5.44 µM) |  |  | 
CCCC1=C(O)C(CCC)(CCC)C(=O)C(C(=O)C2CC2c2ccc(C(F)(F)F)cc2)=C1O (stereo not drawn) [Example 91, 3,5-dihydroxy-4,6,6-tripropyl-2-(2-(4-(trifluoromethyl)phenyl)cyclopropanecarbonyl)cyclohexa-2,4-dienone] | 0.66 (≈ 1.42 µM) | 0.36 (≈ 0.775 µM) | 0.41 (≈ 0.883 µM) |  |  | 
CC1=C(O)C(C)(C)C(=O)C(C(=O)C2CC2c2ccc(Oc3ccc(F)cc3)cc2)=C1O (stereo not drawn) [Example 92, 2-(2-(4-(4-fluorophenoxy)phenyl)cyclopropanecarbonyl)-3,5-dihydroxy-4,6,6-trimethylcyclohexa-2,4-dienone] | 5.5 (≈ 13 µM) | 21 (≈ 49.7 µM) | > 40 |  |  | 
